Data from patent US9987272B2, “Compound useful for the treatement of degenerative and inflammatory diseases” (GALAPAGOS NV, priority 2011, dated 2018).
Values joined by “and” are separate entries in the source; they are usually repeats but may differ in a detail not shown here. Equal values may be shown once.

Experiments:
[1] = system: JAK-STAT; assay: JAK-STAT signalling assay; assay type: cell-based; settings: HeLa cells, pSTAT1(2)-luciferase reporter, human OSM 33 ng/mL; read-out: IC50 against JAK-STAT
Description: HeLa cells were maintained in Dulbecco's Modified Eagle's Medium (DMEM) containing 10% heat inactivated fetal calf serum, 100 U/mL penicillin and 100 μg/mL streptomycin. HeLa cells were used at 70% confluence for transfection. 20,000 cells in 87 μL cell culture medium were transiently transfected with 40 ng pSTAT1(2)-luciferase reporter (Panomics), 8 ng of LacZ reporter as internal control reporter and 52 ng of pBSK using 0.32 μL Jet-PEI (Polyplus) as transfection reagent per well in 96-well plate format. After overnight incubation at 37° C., 5% CO2, transfection medium was removed. 81 μL of DMEM+1.5% heat inactivated fetal calf serum was added. 9 μL compound at 10× concentration was added for 60 min and then 10 μL of human OSM (Peprotech) at 33 ng/mL final concentration. […]
40 μL of cell lysate was used to read β-galactosidase activity by adding 180 μL β-Gal solution (30 μl ONPG 4 mg/mL+150 μL β-Galactosidase buffer (0.06 M Na2HPO4, 0.04 M NaH2PO4, 1 mM MgCl2)) for 20 min. The reaction was stopped by addition of 50 μL Na2CO3 1 M. Absorbance was read at 405 nm.
Luciferase activity was measured using 40 μL cell lysate plus 40 μL of Steadylite® as described by the manufacturer (Perkin Elmer), on the Envision (Perkin Elmer). […]

[2] = molecular target: T1, Recombinant human JAK2 (catalytic domain) (Homo sapiens, UniProt O60674); assay: JAK2 Ulight-JAK1 peptide assay; assay type: biochemical; settings: Ulight-JAK1(tyr1023) peptide, 7.5 μM ATP; individual determinations; read-out: IC50 against JAK2
T1 construct: Recombinant human JAK2 catalytic domain (amino acids 808-1132; catalog number PV4210); purchased Invitrogen PV4210
Description: Recombinant human JAK2 (catalytic domain, amino acids 866-1154; catalog number PV4210) was purchased from Invitrogen. 0.0125 mU of JAK2 was incubated with 25 nM Ulight-JAK1(tyr1023) peptide (Perkin Elmer catalog number TRF0121) in kinase reaction buffer (25 mM HEPES pH7.0, 0.01% Triton X-100, 7.5 mM MgCl2, 2 mM DTT, 7.5 μM ATP) with or without 4 μL containing test compound or vehicle (DMSO, 1% final concentration), in a total volume of 20 μL, in a white 384 Opti plate (Perkin Elmer, catalog number 6007290). […] Readout is performed using the Envision with excitation at 320 nm and measuring emission at 615 nm (Perkin Elmer). Kinase activity was calculated by subtracting relative fluorescence units (RFU) obtained in the presence of a positive control inhibitor (10 μM staurosporine) from RFU obtained in the presence of vehicle. The ability of a test compound to inhibit this activity was determined as: Percentage inhibition=((RFU determined for sample with test compound present−RFU determined for sample with positive control inhibitor) divided by (RFU determined in the presence of vehicle−RFU determined for sample with positive control inhibitor))*100. […]

[3] = molecular target: T2, Recombinant human JAK3 catalytic domain (Homo sapiens, UniProt P52333); assay: JAK3 inhibition assay; assay type: biochemical; settings: polyGT substrate, 1 μM ATP, 33P-gamma-ATP; individual determinations; read-out: IC50 against JAK3
T2 construct: catalytic domain (amino acids 795-1124; catalog number 08-046); purchased Carna Biosciences 08-046
Description: Recombinant human JAK3 catalytic domain (amino acids 795-1124; catalog number 08-046) was purchased from Carna Biosciences. 0.5 ng JAK3 protein was incubated with 2.5 μg polyGT substrate (Sigma catalog number P0275) in kinase reaction buffer (25 mM Tris pH 7.5, 0.5 mM EGTA, 10 mM MgCl2, 2.5 mM DTT, 0.5 mM Na3VO4, 5 mM b-glycerolphosphate, 0.01% Triton X-100, 1 μM non-radioactive ATP, 0.25 μCi 33P-gamma-ATP (Perkin Elmer, catalog number NEG602K001MC) final concentrations) with or without 5 μL containing test compound or vehicle (DMSO, 1% final concentration), in a total volume of 25 μL, in a polypropylene 96-well plate (Greiner, V-bottom). After 45 min at 30° C., reactions were stopped by adding 25 μL/well of 150 mM phosphoric acid. […] 40 μL/well of Microscint-20 was added, the top of the plates was sealed and readout was performed using the Topcount (Perkin Elmer). Kinase activity was calculated by subtracting counts per min (cpm) obtained in the presence of a positive control inhibitor (10 μM staurosporine) from cpm obtained in the presence of vehicle. The ability of a test compound to inhibit this activity was determined as: Percentage inhibition=((cpm determined for sample with test compound present−cpm determined for sample with positive control inhibitor) divided by (cpm determined in the presence of vehicle−cpm determined for sample with positive control inhibitor))*100. […]

[4] = molecular target: T3, Recombinant human TYK2 catalytic domain (Homo sapiens, UniProt P29597); assay: TYK2 inhibition assay; assay type: biochemical; settings: polyGT substrate, 0.1 μM ATP, 33P-gamma-ATP; individual determinations; read-out: IC50 against TYK2
T3 construct: catalytic domain (amino acids 871-1187; catalog number 08-147); purchased Carna Biosciences 08-147
T3 sequence (P29597 871-1187): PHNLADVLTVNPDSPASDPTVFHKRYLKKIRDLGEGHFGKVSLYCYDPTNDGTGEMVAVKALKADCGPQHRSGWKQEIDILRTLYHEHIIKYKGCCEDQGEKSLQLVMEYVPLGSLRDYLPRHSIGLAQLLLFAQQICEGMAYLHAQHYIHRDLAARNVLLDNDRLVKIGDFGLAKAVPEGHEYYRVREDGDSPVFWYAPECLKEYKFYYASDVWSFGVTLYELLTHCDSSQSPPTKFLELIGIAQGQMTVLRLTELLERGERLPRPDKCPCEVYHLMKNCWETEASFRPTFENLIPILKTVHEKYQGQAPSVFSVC
Description: Recombinant human TYK2 catalytic domain (amino acids 871-1187; catalog number 08-147) was purchased from Carna biosciences. 4 ng of TYK2 was incubated with 12.5 μg polyGT substrate (Sigma catalog number P0275) in kinase reaction buffer (25 mM Hepes pH 7.2, 50 mM NaCl, 0.5 mM EDTA, 1 mM DTT, 5 mM MnCl2, 10 mM MgCl2, 0.1% Brij-35, 0.1 μM non-radioactive ATP, 0.125 μCi ^33P-gamma-ATP (Perkin Elmer, catalog number NEG602K001MC) final concentrations) with or without 5 μL containing test compound or vehicle (DMSO, 1% final concentration), in a total volume of 25 μL, in a polypropylene 96-well plate (Greiner, V-bottom). After 90 min at 30° C., reactions were stopped by adding 25 μL/well of 150 mM phosphoric acid. […] 40 μL/well of Microscint-20 was added, the top of the plates was sealed and readout was performed using the Topcount (Perkin Elmer). Kinase activity was calculated by subtracting counts per min (cpm) obtained in the presence of a positive control inhibitor (10 μM staurosporine) from cpm obtained in the presence of vehicle. The ability of a test compound to inhibit this activity was determined as: Percentage inhibition=((cpm determined for sample with test compound present−cpm determined for sample with positive control inhibitor) divided by (cpm determined in the presence of vehicle−cpm determined for sample with positive control inhibitor))*100. […]

[5] = molecular target: T4, Recombinant human JAK1 (catalytic domain, amino acids 866-1154) (Homo sapiens, UniProt P23458); assay: JAK1 Ulight-JAK1 peptide assay; assay type: biochemical; settings: Ulight-JAK1(tyr1023) peptide, 7 μM ATP; individual determinations; read-out: IC50 against JAK1
T4 construct: catalytic domain, amino acids 866-1154; purchased Invitrogen PV4774
Description: Recombinant human JAK1 (catalytic domain, amino acids 866-1154; catalog number PV4774) was purchased from Invitrogen. 1 ng of JAK1 was incubated with 20 nM Ulight-JAK1(tyr1023) peptide (Perkin Elmer catalog number TRF0121) in kinase reaction buffer (25 mM MOPS pH6.8, 0.01% Brij-35, 5 mM MgCl2, 2 mM DTT, 7 μM ATP) with or without 4 μL containing test compound or vehicle (DMSO, 1% final concentration), in a total volume of 20 μL, in a white 384 Opti plate (Perkin Elmer, catalog number 6007290). […] Readout is performed using the Envision with excitation at 320 nm and measuring emission at 615 nm (Perkin Elmer). Kinase activity was calculated by subtracting relative fluorescence units (RFU) obtained in the presence of a positive control inhibitor (10 μM staurosporine) from RFU obtained in the presence of vehicle. The ability of a test compound to inhibit this activity was determined as: Percentage inhibition=((RFU determined for sample with test compound present−RFU determined for sample with positive control inhibitor) divided by (RFU determined in the presence of vehicle−RFU determined for sample with positive control inhibitor))*100.
A dose dilution series was prepared for the compound enabling the testing of dose-response effects in the JAK1 assay and the calculation of the IC50 for the compound. […] The data are expressed as the average IC50 from the assays±standard error of the mean.

[6] = molecular target: T5, TYK2 (Homo sapiens, UniProt P29597); assay: TYK2 Ki determination assay; assay type: biochemical; settings: Lineweaver-Burk plot, polyGT substrate, varying ATP
T5 construct: catalytic domain (amino acids 871-1187; catalog number 08-147); purchased Carna Biosciences 08-147
T5 sequence (P29597 871-1187): T3 sequence (P29597 871-1187)
Description: For the determination of Ki, different amounts of compound are mixed with the enzyme and the enzymatic reaction is followed as a function of ATP concentration. The Ki is determined by means of double reciprocal plotting of Km vs compound concentration (Lineweaver-Burk plot). TYK2 (Carna Biosciences, 08-147) was used at a final concentration of 160 ng/ml. The substrate was Poly(Glu,Tyr)sodium salt (4:1), MW 20 000-50 000 (Sigma, P0275) The reaction was performed in 25 mM Hepes pH 7.2, 50 mM NaCl, 0.5 mM EDTA, 1 mM DTT, 5 mM MnCl2, 10 mM MgCl2, 0.1% Brij-35 with varying concentrations of ATP and compound and stopped by addition of 150 mM phosphoric acid. Measurement of incorporated phosphate into the substrate polyGT was done by loading the samples on a filter plate (using a harvester, Perkin Elmer) and subsequent washing. Incorporated ^33P in polyGT is measured in a Topcount scintillation counter after addition of scintillation liquid to the filter plates (Perkin Elmer).

T2 sequence (P52333 795-1124): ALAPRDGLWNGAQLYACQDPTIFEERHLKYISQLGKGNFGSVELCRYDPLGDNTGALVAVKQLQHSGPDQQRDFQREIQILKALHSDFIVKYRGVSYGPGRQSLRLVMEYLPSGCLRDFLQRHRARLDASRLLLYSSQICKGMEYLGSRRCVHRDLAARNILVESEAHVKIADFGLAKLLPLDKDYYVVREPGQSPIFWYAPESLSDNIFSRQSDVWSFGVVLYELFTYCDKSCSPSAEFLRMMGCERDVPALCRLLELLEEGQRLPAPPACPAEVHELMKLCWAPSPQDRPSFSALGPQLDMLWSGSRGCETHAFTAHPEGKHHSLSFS
T4 sequence (P23458 866-1154): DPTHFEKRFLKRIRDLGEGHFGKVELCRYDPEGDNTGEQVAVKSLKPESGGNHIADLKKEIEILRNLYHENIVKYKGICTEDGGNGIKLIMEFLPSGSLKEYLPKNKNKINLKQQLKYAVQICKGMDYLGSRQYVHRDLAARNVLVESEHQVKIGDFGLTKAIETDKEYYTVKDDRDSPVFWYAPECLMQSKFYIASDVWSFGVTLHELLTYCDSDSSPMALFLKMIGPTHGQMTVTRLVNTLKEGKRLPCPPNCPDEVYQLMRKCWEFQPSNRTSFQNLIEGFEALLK
T1 sequence (O60674 808-1132): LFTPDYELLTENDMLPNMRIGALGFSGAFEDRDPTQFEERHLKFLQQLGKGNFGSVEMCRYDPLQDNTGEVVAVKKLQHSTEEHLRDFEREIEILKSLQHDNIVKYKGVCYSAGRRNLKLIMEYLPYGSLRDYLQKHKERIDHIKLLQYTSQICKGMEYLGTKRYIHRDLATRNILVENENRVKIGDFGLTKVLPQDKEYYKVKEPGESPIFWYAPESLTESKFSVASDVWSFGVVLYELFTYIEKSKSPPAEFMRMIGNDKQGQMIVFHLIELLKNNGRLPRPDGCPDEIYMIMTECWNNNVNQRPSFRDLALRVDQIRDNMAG

- IC50 [1]: 970 nM
- IC50 [2]: 17.3 nM and 11.3 nM and 9.57 nM and 26 nM and 18.2 nM
- IC50 [3]: 271 nM and 299 nM and 213 nM and 428 nM
- IC50 [4]: 167 nM and 135 nM and 119 nM and 157 nM
- IC50 [5]: 8.18 nM and 11.5 nM and 7.71 nM and 35.2 nM and 7.85 nM
- Ki [6]: 110 nM
SMILES: CC(=O)Nc1cc2c(-c3ccc(CN4CCN(S(C)(=O)=O)CC4)c(F)c3)cccn2n1 [Compound 1]
